Reference: article PMC10986598, “Investigating inhibitors of 1-deoxy-D-xylulose 5-phosphate synthase in a mouse model of UTI” (Microbiology Spectrum, 2024)
≈ marks a conversion by molar mass, not a printed value. Entries after “also recorded” stand apart in the source; their conditions may differ. Where two headings read alike, the source gives them in different places.

Tests used:
[1] = In vivo PK studies in CD-1 mice
Method: For pharmacokinetic analysis, both male (n = 2) and female (n = 2) CD1 mice were dosed with either BAP or pro-hpAP by intraperitoneal (IP) route or administration (100 mg/kg) and (30 mg/kg), respectively. Blood and tissue samples were collected at predetermined time points (0–6 h post-dose). Plasma was generated from blood by low-speed centrifugation (3,000 × g), and all samples were stored at −80°C until bioanalysis.
Non-compartmental-analysis module in WinNonlin was used to assess blood pharmacokinetic parameters including max concentrations (Cmax), time to Cmax (Tmax), area under the curve (AUC), area extrapolated to infinity (AUC0–∞), and terminal half-life (t1/2). In addition, the tissue penetration index was measured as the ratio of AUCtissue to AUCplasma.
To quantify BAP and pro-hpAP, methanol containing 0.5 µM losartan as an internal standard was added 5 µL/µL plasma or 5 µL/mg tissue in microcentrifuge tubes. Tissue was further homogenized using a Spex Geno/Grinder with stainless steel beads for 3 min at 1,500 RPM. Homogenates from untreated animals were spiked with the analytes from 100 to 0.01 nmol/g tissue by serial dilution to generate a standard curve. Plasma and tissue homogenates were then vortexed and centrifuged (16,000 × g for 5 min at 4°C) to precipitate proteins. Supernatants were transferred to a 96 well plate and 2 µL was injected on a Accela 1250 LC coupled to a Vantage triple quadrupole mass spectrometer (Thermo Fisher Scientific Inc., Waltham MA). Samples were separated on an Agilent EclipsePlus C18 RRHD (1.8 µm) 2.1 × 100 mm column with mobile phases consisting of water +0.1% formic acid (A), and acetonitrile + 0.1% formic acid (B). […] Samples were introduced to the source through heated ion spray with the capillary temperature setting at 350°C, spray voltage of 4 kV and S-Lens RF of 51. Nitrogen was used as the sheath and auxiliary gas with the settings of 50 and 1 arbitrary units, respectively. For BAP, the instrument was operated in negative ion mode scanning for transitions of 179.1 > 63.1, 79.1 (BAP) and 420.9 > 179.1, 127.0 (losartan) which were acquired with collision energies setting of 17; 55 and 25; 41 CE, respectively. For pro-hpAP, the instrument was operated in positive ion mode scanning for transitions of 346.2 to 86.1 and 143.2 (pro-hpAP) and 422.9 to 207.1 and 180.1 (losartan) which were acquired with collision energies setting of 29; 17 and 37; 22 CE, respectively. Peaks were quantified with Xcalibur software.

[2] = test system: UPEC (CFT073); design: method as in PMID 37107054; conditions: cited from earlier work
[3] = test system: DXPS; design: method as in PMID 23326631; conditions: over other ThDP-dependent enzymes; cited from earlier work
[4] = test system: FVB mice; assay: Acute toxicity dose-escalation study in mice; type: in vivo, mouse; conditions: n = 2
Method: Six-week-old female FVB mice were administered BAP by intraperitoneal (IP) injection at doses of 1, 3, 10, 30, 100, and 300 mg/kg. The mice were observed every hour for 6 h post administration for signs of overt toxicity or mortality, or for symptoms related to pain/distress (ruffled fur, discharge from the eyes, dehydration, hunched posture, convulsions, lethargy, reluctance to move, uncoordinated movements, hypothermia, pale ears/feet, labored respiration, and/or cyanosis). Following initial observations, 6 h post administration, mice were then observed daily for signs of toxicity for 18 days. Mice that were administered the highest dose of BAP tested (300 mg/kg) were weighed at days 0, 1, 2, 5, 6, 7, 13, and 18.

[5] = test system: UPEC (CFT073); assay: Antimicrobial susceptibility of UPEC (CFT073) grown in urine; type: cell-based, uropathogenic Escherichia coli
Method: Pooled human urine was filter-sterilized prior to use. Solid urine agar plates were prepared by supplementing cooled 1.5% (wt/vol) agar with filter-sterilized urine in a 4:1 ratio. OD600 measurements were performed on a Beckman DU800 UV/Visible spectrophotometer (Brea, CA, USA). MIC determination data were collected from bacteria in 96-well plates (Nunc Edge 96-Well, Non-Treated, Flat-Bottom Microplate) incubated and read on a Biotek Epoch 2 microplate reader. Uropathogenic E. coli strain CFT073 (ATCC: BAA-2503) was obtained from the lab of Rodney Welch ([58]). All microbial manipulation of pathogenic bacteria was conducted in a certified biosafety level 2 laboratory following all associated safety protocols. A hand-held tissue homogenizer (purchased from IKA, T10 basic S001, 3737001) was used to homogenize mouse bladders for bacterial enumeration.
UPEC (CFT073) cells from frozen glycerol stocks were streaked onto urine agar plates and grown for 48 h at 37°C. Three to five isolated colonies were inoculated into filter-sterilized urine supplemented with FeSO4 (20 µM), and the cultures were grown overnight with shaking at 37°C. The saturated cultures were subcultured (1:50) in fresh urine supplemented with FeSO4 (20 µM) and grown to exponential phase (OD600 ~ 0.25). Cultures at exponential phase were diluted 1:1,000 into fresh urine supplemented with FeSO4 (20 µM) to yield the experimental inoculum which was mixed 1:1 with urine containing pro-hpAP at 2 × the desired final concentration (0–10 µM). The final concentration of bacteria in each well was ~10^5 CFU/mL in a volume of 200 µL. Colony counts of the experimental inoculum were independently verified by dilution and enumeration on LB agar, grown for 16 h at 37°C, to confirm consistency between experiments. The 96-well plates were incubated at 37°C for 16 h with intermittent shaking. Fractional growth of cells treated with pro-hpAP was determined at 8 h relative to the no drug control. MIC determination was performed in biological triplicate.

[6] = Bladder, single 100 mg/kg IP dose of BAP
[7] = Brain, single 100 mg/kg IP dose of BAP
[8] = Kidney, single 100 mg/kg IP dose of BAP
[9] = Plasma, single 100 mg/kg IP dose of BAP

CCCCOP(=O)(O)C(C)=O [BAP, butyl acetylphosphonate]
AUC(0-t) [1, 6]: 1990 ± 110 µM·h | Cmax [1, 6]: 1840 ± 230 µM | Tmax [1, 6]: 4.8 min | AUC(0-t) [1, 7]: 12.5 ± 1.8 µM·h | Cmax [1, 7]: 16.2 ± 2.6 µM | AUC(0-t) [1, 8]: 136 ± 7 µM·h | Cmax [1, 8]: 298 ± 37 µM | Tmax [1, 8]: 4.8 min | AUC(0-t) [1, 9]: 233 ± 27 µM·h | Cmax [1, 9]: 650 ± 190 µM | Tmax [1, 9]: 4.8 min | AUC ([1]; bladder, BAP 100 mg/kg IP): 1,990 ± 110 nmol h/g | AUC ([1]; brain, BAP 100 mg/kg IP): 12.5 ± 1.8 nmol·h/g | AUC ([1]; kidney, BAP 100 mg/kg IP): 136 ± 7 nmol·h/g | AUC ([1]; plasma, BAP 100 mg/kg IP): 233 ± 27 nmol·h/mL | MIC (growth suppressed >90%) ([2]; UPEC CFT073 in urine): 1250 µM (≈ 225 µg/mL) | reduction in UPEC growth ([2]; in urine, at 156 µM BAP): ~ 80% | selectivity for DXPS [3]: selective for DXPS over other ThDP-dependent enzymes | body weight ([4]; single IP dose 300 mg/kg, weighed for 18 days, 300 mg/kg): weight was maintained throughout the observation period; also recorded: no symptoms of distress or change in weight | overt toxicity or altered behavior ([4]; single IP dose, escalating up to 300 mg/kg, observed 18 days): No overt toxicity or altered behavior was observed; also recorded: no symptoms of distress

C#CCCOP(=O)(O)C(=C)NC(=O)C(CC(C)C)NC(=O)CN (stereo not drawn) [pro-hpAP]
AUC ([1]; bladder, pro-hpAP 30 mg/kg IP, analyte = labelled substance (pro-hpAP or released hpAP)): 6.2 ± 1.3 nmol·h/g | Cmax ([1]; both sexes, CD1, mouse, Bladder, single 30 mg/kg IP dose of pro-hpAP, analyte = labelled substance): 24.3 ± 8.5 µM | AUC(0-t) ([1]; both sexes, CD1, mouse, Bladder, single 30 mg/kg IP dose of pro-hpAP, analyte = labelled substance, read-out: AUC0-t): 6.2 ± 1.3 µM·h | Tmax ([1]; both sexes, CD1, mouse, Bladder, single 30 mg/kg IP dose of pro-hpAP, analyte = labelled substance, read-out: Tmax): 4.8 min | Cmax ([1]; both sexes, CD1, mouse, Brain, single 30 mg/kg IP dose of pro-hpAP, analyte = labelled substance): 0.134 ± 0.036 µM | AUC(0-t) ([1]; both sexes, CD1, mouse, Brain, single 30 mg/kg IP dose of pro-hpAP, analyte = labelled substance, read-out: AUC0-t): 0.115 ± 0.014 µM·h | Tmax ([1]; both sexes, CD1, mouse, Brain, single 30 mg/kg IP dose of pro-hpAP, analyte = labelled substance, read-out: Tmax): 4.8 min | Cmax ([1]; both sexes, CD1, mouse, Kidney, single 30 mg/kg IP dose of pro-hpAP, analyte = labelled substance): 0.715 ± 0.09 µM | AUC(0-t) ([1]; both sexes, CD1, mouse, Kidney, single 30 mg/kg IP dose of pro-hpAP, analyte = labelled substance, read-out: AUC0-t): 0.516 ± 0.048 µM·h | Tmax ([1]; both sexes, CD1, mouse, Kidney, single 30 mg/kg IP dose of pro-hpAP, analyte = labelled substance, read-out: Tmax): 4.8 min | Cmax ([1]; both sexes, CD1, mouse, Plasma, single 30 mg/kg IP dose of pro-hpAP, analyte = labelled substance (pro-hpAP or released hpAP)): 20.2 ± 1.9 µM | AUC(0-t) ([1]; both sexes, CD1, mouse, Plasma, single 30 mg/kg IP dose of pro-hpAP, analyte = labelled substance, read-out: AUC0-t): 3.2 ± 0.21 µM·h | Tmax ([1]; both sexes, CD1, mouse, Plasma, single 30 mg/kg IP dose of pro-hpAP, analyte = labelled substance, read-out: Tmax): 4.8 min | AUC ([1]; both sexes, CD1, mouse, plasma, pro-hpAP 30 mg/kg IP, analyte = labelled substance, read-out: AUC): 3.2 ± 0.21 nmol·h/mL | AUC ([1]; brain, pro-hpAP 30 mg/kg IP, analyte = labelled substance): 0.115 ± 0.014 nmol·h/g | AUC ([1]; kidney, pro-hpAP 30 mg/kg IP, analyte = labelled substance): 0.516 ± 0.048 nmol·h/g | MIC ([5]; Escherichia coli, UPEC CFT073 in urine, read-out: MIC (growth suppressed >90%)): 5 µM (≈ 1.73 µg/mL) | reduction in fractional growth ([5]; UPEC CFT073 in urine, at 630 nM pro-hpAP, 8 h): > 70% | higher potency than BAP (MIC in urine) ([5]; UPEC in urine, relative to BAP): 250 fold
